Experimental data published in ChEMBL document CHEMBL1130491, “Nonpeptide bradykinin antagonist analogs based on a model of a Sterling-Winthrop nonpeptide bradykinin antagonist overlapped with cyclic hexapeptide bradykinin antagonist peptides” (Bioorg Med Chem Lett, 1997).

Experiments:
Substance-P receptor = Substance-P receptor (Homo sapiens, UniProt P25103); experiment: Binding affinity towards Tachykinin receptor 1, activity expressed as Kd
[1] = Binding affinity towards human Bradykinin receptor, activity expressed as Kd

Sequence of Substance-P receptor (P25103 whole entry): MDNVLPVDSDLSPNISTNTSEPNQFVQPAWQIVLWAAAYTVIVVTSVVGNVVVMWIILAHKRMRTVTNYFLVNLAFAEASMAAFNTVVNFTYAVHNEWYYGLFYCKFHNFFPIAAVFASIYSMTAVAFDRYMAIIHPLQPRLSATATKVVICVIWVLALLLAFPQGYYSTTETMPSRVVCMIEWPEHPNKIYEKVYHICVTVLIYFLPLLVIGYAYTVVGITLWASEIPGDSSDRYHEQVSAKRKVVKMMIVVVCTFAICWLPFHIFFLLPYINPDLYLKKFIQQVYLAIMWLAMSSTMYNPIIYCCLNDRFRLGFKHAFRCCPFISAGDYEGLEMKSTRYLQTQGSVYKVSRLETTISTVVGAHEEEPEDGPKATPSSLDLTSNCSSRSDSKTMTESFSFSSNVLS

Row | Compound | Kd (Substance-P receptor) [nM] | Kd [1] [nM]
1 | CCCC[N+](CCCC)(CCCC)Cc1ccc(NC(=O)[C@@H](Cc2ccc3ccccc3c2)N=C(NC2CCCCC2)NC2CCCCC2)cc1 | 290 | 79
2 | N=C(N)NCc1ccc(NC(=O)[C@H](Cc2ccc3ccccc3c2)N=C(NC2CCCCC2)NC2CCCCC2)cc1 | 1100 | 330
3 | NC(N)=NCCC[C@H](N)C(=O)NCc1ccc(NC(=O)[C@H](Cc2ccc3ccccc3c2)N=C(NC2CCCCC2)NC2CCCCC2)cc1 | 1500 | 390
4 | CCCC[P+](CCCC)(CCCC)Cc1ccc(NC(=O)[C@H](Cc2ccc3ccccc3c2)NC(=O)NC2CCCCC2)cc1 | 1300 | 1600
5 | CCCC[P+](CCCC)(CCCC)Cc1ccc(NC(=O)[C@@H](Cc2ccc3ccccc3c2)N=C(NC2CCCCC2)NC2CCCCC2)cc1 | 370 | 44
6 | CC/N=C(\NCC)NCc1ccc(NC(=O)[C@H](Cc2ccc3ccccc3c2)N=C(NC2CCCCC2)NC2CCCCC2)cc1 | 1800 | 460
7 | NCc1ccc(NC(=O)[C@H](Cc2ccc3ccccc3c2)N=C(NC2CCCCC2)NC2CCCCC2)c(C(=O)O)c1 | 3800 | 690
8 | NCc1ccc(NC(=O)[C@H](Cc2ccc3ccccc3c2)N=C(NC2CCCCC2)NC2CCCCC2)cc1 | 1300 | 800

More lines, in order of falling Kd [1], values ahead:

Row | Kd (Substance-P receptor) [nM] | Kd [1] [nM] | Compound
9 |  | 2100 | O=C(Nc1ccc(CO)cc1)[C@H](Cc1ccc2ccccc2c1)N/C(=N/C1CCCCC1)NC1CCCCC1
10 |  | 1500 | O=C(Nc1ccc(CO)cc1)[C@@H](Cc1ccc2ccccc2c1)N=C(NC1CCCCC1)NC1CCCCC1
11 |  | 1500 | NCc1ccc(N(CCC(=O)O)C(=O)[C@H](Cc2ccc3ccccc3c2)N=C(NC2CCCCC2)NC2CCCCC2)cc1
12 |  | 990 | N=C(N)NCCC[C@@H](NC(=O)C12CC3CC(CC(C3)C1)C2)C(=O)NCc1ccc(NC(=O)[C@H](Cc2ccc3ccccc3c2)N=C(NC2CCCCC2)NC2CCCCC2)cc1
13 |  | 450 | NCc1ccc(NC(=O)[C@@H](Cc2ccc3ccccc3c2)N=C(NC2CCCCC2)NC2CCCCC2)cc1
14 | 670 | 340 | CCCC[P+](CCCC)(CCCC)Cc1ccc(NC(=O)[C@H](Cc2ccc3ccccc3c2)N=C(NC2CCCCC2)NC2CCCCC2)cc1
15 |  | 230 | NC(N)=NCCC[C@@H](N)C(=O)NCc1ccc(NC(=O)[C@H](Cc2ccc3ccccc3c2)N=C(NC2CCCCC2)NC2CCCCC2)cc1
16 | 860 | 200 | N=C(N)NCc1ccc(NC(=O)[C@@H](Cc2ccc3ccccc3c2)N=C(NC2CCCCC2)NC2CCCCC2)cc1
17 | 540 | 98 | CCCC[N+](CCCC)(CCCC)Cc1ccc(NC(=O)[C@H](Cc2ccc3ccccc3c2)N=C(NC2CCCCC2)NC2CCCCC2)cc1
